Experimental findings from patent US20250346580A1, “NOVEL PYRIMIDINYL SULFONAMIDE DERIVATIVES” (Hoffmann-La Roche Inc., priority 2023, published 2025) are described below.

pIC50: −log10 of the molar value.

Series [1] concerns the target human GPR17 short isoform (Homo sapiens, UniProt Q13304). The series is described as follows: GPR17 cAMP assay (hGPR17 cAMP). In kind it is cell-based. The conditions noted are these: CHO-K1 cells stably expressing human GPR17 short isoform; antagonist mode with EC80 of MDL29,951, forskolin 15 μM, TR-FRET cAMP. As for the experimental part: GPR17 cAMP Assay Protocol:
CHO-K1 cells stably expressing vector containing untagged human GPR17 short isoform (Roche) were cultured at 37° C./5% CO2 in DMEM (Dulbecco's Modified Eagle Medium):F-12 (1:1) supplemented with 10% foetal bovine serum and 400 μg/ml Geneticin.
Changes in intracellular cyclic adenosine monophosphate (cAMP) levels were quantified using the Nano-TRF Detection Assay kit (Roche Diagnostics, Cat. No. 05214386001). This assay allows for direct cAMP quantification in a homogeneous solution. cAMP is detected based on time-resolved fluorescence energy transfer (TR-FRET) and competitive binding of ruthenylated cAMP and endogenous cAMP to an anti-cAMP monoclonal antibody labeled with AlexaFluor-700. The Ruthenium complex serves as the FRET donor and transfers energy to AlexaFluor-700. The FRET signal is inversely proportional to the cAMP concentration.
CHO-GPR17S cells were detached with Accutase and resuspended in assay buffer consisting of Hank's Balanced Salt Solution (HBSS), 10 mM HEPES (4-(2-hydroxyethyl) piperazine-1-ethanesulfonic acid solution) and 0.1% bovine serum albumin (pH 7.4). The cells were seeded in black 384-well plates (Corning) at a density of 10'000 cells/20 μl assay buffer until the addition of compounds.
Test antagonist compounds were serially diluted in dimethyl sulfoxide (DMSO) and spotted in 384-well plates. The compounds were then diluted in HBSS buffer supplemented with an EC80 concentration of MDL29,951 (3-(2-Carboxy-4,6-dichloroindol-3-yl)propionic acid) (GPR17 agonist) plus 3-Isobutyl-1-methylxanthine (IBMX) (0.5 mM final concentration) and added to the cells at room temperature. Forskolin (15 μM final concentration) was added 5 minutes after the test compounds and the cells were incubated at room temperature for 30 minutes. The assay was stopped by adding cAMP detection mix (containing detergents for cell lysis) for 90 minutes at room temperature.
Cellular cAMP was measured using a Paradigm reader (Molecular Devices). The raw data was used to calculate the FRET signal based on the assay's P-factor as per cAMP kit instructions. The data was normalized to the maximal activity of a reference antagonist and dose response curves were fitted to the percent activity of the test compounds using a sigmoidal dose response model (Genedata Screener).

The nature of series [2]: Microsome clearance assay, human. In kind it is in vitro ADME. The conditions noted are these: human microsomes 0.5 mg/mL plus NADPH, 37° C., test compound 1 microM; first value of cell. As for the experimental part:
(§1) Microsome Clearance Assay Protocol:
(§2) incubations at a test compound of […] in microsomes (0.5 mg/mL) plus cofactor NADPH are performed in 96 well plates at 37° C. on a TECAN (Tecan Group Ltd, Switzerland) automated liquid handling system. The final concentration of the test compound in the incubation is 1 microM. After a 10 minutes preincubation step of the test compound with the microsomes, the enzymatic reaction is started by the addition of cofactors. At 1, 3, 6, 9, 15, 25, 35 and 45 minutes, aliquots of the incubations are removed and quenched with 1:3 (v/v) acetonitrile containing internal standards. Samples are then cooled and centrifuged before analysis of the supernatant by LC-MS/MS.
(§3) Reference compounds were tested against exemplified compounds for their Microsome Clearance.

Series [3] is described as follows: Microsome clearance assay, mouse. In kind it is in vitro ADME. The conditions noted are these: mouse microsomes 0.5 mg/mL plus NADPH, 37° C., test compound 1 microM; second value of cell. As for the experimental part: as §1, §2, §3
Series [4] can be described thus: Microsome clearance assay, rat. The conditions noted are these: rat microsomes 0.5 mg/mL plus NADPH, 37° C., test compound 1 microM; third value of cell. In kind it is in vitro ADME. The method, then: as §1, §2, §3

human GPR17 short isoform, sequence (Q13304 29-367): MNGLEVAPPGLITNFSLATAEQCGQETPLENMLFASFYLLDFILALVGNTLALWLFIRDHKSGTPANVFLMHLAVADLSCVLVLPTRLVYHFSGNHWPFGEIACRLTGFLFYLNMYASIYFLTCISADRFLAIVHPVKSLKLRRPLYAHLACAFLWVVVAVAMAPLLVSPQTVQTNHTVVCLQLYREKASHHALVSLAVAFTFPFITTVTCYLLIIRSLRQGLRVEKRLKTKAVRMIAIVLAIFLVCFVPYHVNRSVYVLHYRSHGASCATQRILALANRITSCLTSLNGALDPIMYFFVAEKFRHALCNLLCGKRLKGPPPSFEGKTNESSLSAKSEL

As for `COc1nc(NS(=O)(=O)c2c[nH]c(-c3ccccc3)c2)nc(OC)c1OCC(F)F` [Example 1, N-[5-(2,2-difluoroethoxy)-4,6-dimethoxy-pyrimidin-2-yl]-5-phenyl-1H-pyrrole-3-sulfonamide], the negative logarithm of the IC50 (pIC50) (in general, the negative decadic logarithm of the IC50, by convention in mol/L) in series [1] is 6.32. Besides, the “Microsomal Clearance human” value in series [2] worked out at 10 μL/min/mg protein. Also, the “Microsomal Clearance mouse” value in series [3] came to 21 μL/min/mg protein. Besides, the “Microsomal Clearance rat” value in series [4] came to 81 μL/min/mg protein.
The corresponding values for `COc1nc(NS(=O)(=O)c2c[nH]c(-c3ncccc3F)c2)nc(OC)c1OCCF` [Example 7, N-[5-(2-fluoroethoxy)-4,6-dimethoxy-pyrimidin-2-yl]-5-(3-fluoro-2-pyridyl)-1H-pyrrole-3-sulfonamide] are 7.07, 10 μL/min/mg protein, 12 μL/min/mg protein and 32 μL/min/mg protein.
The corresponding values for `COc1nc(NS(=O)(=O)c2c[nH]c(-c3nccs3)c2)nc(OC)c1OC(F)F` [Example 14, N-[5-(difluoromethoxy)-4,6-dimethoxy-pyrimidin-2-yl]-5-thiazol-2-yl-1H-pyrrole-3-sulfonamide] are 6.59, 10 μL/min/mg protein, 10 μL/min/mg protein and 50 μL/min/mg protein.
`COc1nc(NS(=O)(=O)c2c[nH]c(-c3nccs3)c2)nc(OC)c1C1CC1C#N` (centres unmarked) [Example 35, N-[5-(2-cyanocyclopropyl)-4,6-dimethoxy-pyrimidin-2-yl]-5-thiazol-2-yl-1H-pyrrole-3-sulfonamide] showed a pIC50 in series [1] of 6.77.
In series [1], `COc1nc(NS(=O)(=O)c2c[nH]c(-c3cncs3)c2)nc(OC)c1OCC(F)F` [Example 36, N-[5-(2,2-difluoroethoxy)-4,6-dimethoxy-pyrimidin-2-yl]-5-thiazol-5-yl-1H-pyrrole-3-sulfonamide] had a pIC50 of 6.95.
Molecule `COc1nc(NS(=O)(=O)c2c[nH]c(-c3ccccc3F)c2)nc(OC)c1CC(F)F` [Example 37, N-[5-(2,2-difluoroethyl)-4,6-dimethoxy-pyrimidin-2-yl]-5-(2-fluorophenyl)-1H-pyrrole-3-sulfonamide] had a negative logarithm of the IC50 (pIC50) in series [1] of 6.89.
The same measure, in the same setting: to `COc1nc(NS(=O)(=O)c2c[nH]c(-c3ccccc3F)c2)nc(OC)c1OCCF` [Example 38, N-[5-(2-fluoroethoxy)-4,6-dimethoxy-pyrimidin-2-yl]-5-(2-fluorophenyl)-1H-pyrrole-3-sulfonamide] belongs 6.91.
Take `COc1nc(NS(=O)(=O)c2c[nH]c(-c3ccccc3F)c2)nc(OC)c1OC(F)F` [Example 39, N-[5-(difluoromethoxy)-4,6-dimethoxy-pyrimidin-2-yl]-5-(2-fluorophenyl)-1H-pyrrole-3-sulfonamide]: the negative logarithm of the IC50 (pIC50) in series [1] was 6.45.
In turn, `COc1nc(NS(=O)(=O)c2c[nH]c(-c3ccccc3F)c2)nc(OC)c1OCC(F)F` [Example 40, N-[5-(2,2-difluoroethoxy)-4,6-dimethoxy-pyrimidin-2-yl]-5-(2-fluorophenyl)-1H-pyrrole-3-sulfonamide] gave a negative-log IC50 (pIC50) in series [1] of 6.27.
Consider `COc1nc(NS(=O)(=O)c2c[nH]c(-c3cccn(C)c3=O)c2)nc(OC)c1OCC(F)F` [Example 41, N-[5-(2,2-difluoroethoxy)-4,6-dimethoxy-pyrimidin-2-yl]-5-(2-keto-1-methyl-3-pyridyl)-1H-pyrrole-3-sulfonamide], for which the pIC50 in series [1] is 5.85.
On the same count and under the same terms, to `COc1nc(NS(=O)(=O)c2c[nH]c(-c3cnc(C)s3)c2)nc(OC)c1OCC(F)F` [Example 42, N-[5-(2,2-difluoroethoxy)-4,6-dimethoxy-pyrimidin-2-yl]-5-(2-methylthiazol-5-yl)-1H-pyrrole-3-sulfonamide] belongs 5.70.
The same measure, in the same setting: the figure for `COc1nc(NS(=O)(=O)c2c[nH]c(-c3ncccn3)c2)nc(OC)c1OCC(F)F` [Example 43, N-[5-(2,2-difluoroethoxy)-4,6-dimethoxy-pyrimidin-2-yl]-5-pyrimidin-2-yl-1H-pyrrole-3-sulfonamide] is 5.90; for `COc1nc(NS(=O)(=O)c2c[nH]c(-c3ncc(C)s3)c2)nc(OC)c1OCC(F)F` [Example 44, N-[5-(2,2-difluoroethoxy)-4,6-dimethoxy-pyrimidin-2-yl]-5-(5-methylthiazol-2-yl)-1H-pyrrole-3-sulfonamide] it is 5.57; for `COc1nc(NS(=O)(=O)c2c[nH]c(-c3cccnn3)c2)nc(OC)c1OCC(F)F` [Example 45, N-[5-(2,2-difluoroethoxy)-4,6-dimethoxy-pyrimidin-2-yl]-5-pyridazin-3-yl-1H-pyrrole-3-sulfonamide] it is 6.60.
Turning to `COc1nc(NS(=O)(=O)c2c[nH]c(-c3ncccc3Cl)c2)nc(OC)c1OCC(F)F` [Example 46, 5-(3-chloro-2-pyridyl)-N-[5-(2,2-difluoroethoxy)-4,6-dimethoxy-pyrimidin-2-yl]-1H-pyrrole-3-sulfonamide], in series [1], the pIC50 is 7.11.
For the molecule `COc1nc(NS(=O)(=O)c2c[nH]c(-c3ccncn3)c2)nc(OC)c1OCC(F)F` [Example 47, N-[5-(2,2-difluoroethoxy)-4,6-dimethoxy-pyrimidin-2-yl]-5-pyrimidin-4-yl-1H-pyrrole-3-sulfonamide], the negative-log IC50 (pIC50) in series [1] was 5.79.
Take `COc1nc(NS(=O)(=O)c2c[nH]c(-c3cnccn3)c2)nc(OC)c1OCC(F)F` [Example 48, N-[5-(2,2-difluoroethoxy)-4,6-dimethoxy-pyrimidin-2-yl]-5-pyrazin-2-yl-1H-pyrrole-3-sulfonamide]: in series [1], the negative logarithm of the IC50 (pIC50) is 5.88.
In turn, `COc1nc(NS(=O)(=O)c2c[nH]c(-c3ncccc3C)c2)nc(OC)c1OCC(F)F` [Example 49, N-[5-(2,2-difluoroethoxy)-4,6-dimethoxy-pyrimidin-2-yl]-5-(3-methyl-2-pyridyl)-1H-pyrrole-3-sulfonamide] showed a negative-log IC50 (pIC50) in series [1] of 6.91.
The same measure, in the same setting: the figure for `COc1nc(NS(=O)(=O)c2c[nH]c(C3CCC3)c2)nc(OC)c1OC(F)F` [Example 50, 5-cyclobutyl-N-[5-(difluoromethoxy)-4,6-dimethoxy-pyrimidin-2-yl]-1H-pyrrole-3-sulfonamide] is 6.13; for `COc1nc(NS(=O)(=O)c2c[nH]c(C3CCC3)c2)nc(OC)c1OCC(F)F` [Example 51, 5-cyclobutyl-N-[5-(2,2-difluoroethoxy)-4,6-dimethoxy-pyrimidin-2-yl]-1H-pyrrole-3-sulfonamide] it is 6.52.
Regarding `COc1nc(OCC(F)F)c(F)nc1NS(=O)(=O)c1c[nH]c(-c2ccccc2)c1` [RE-A], the microsomal CLint – broadly, a measure of how fast metabolising enzymes remove a compound, apart from limits set by blood flow – at 1 µM in series [2] came out at 21 µL/min/mg; in series [3], 136 µL/min/mg; in series [4], 489 µL/min/mg.
The corresponding values for `N#Cc1ccc(NS(=O)(=O)c2c[nH]c(-c3ncccc3F)c2)c(F)c1` [RE-B] are 253 µL/min/mg, 43 µL/min/mg and 79 µL/min/mg.
As to `O=S(=O)(Nc1cc(F)c(Br)cc1F)c1c[nH]c(-c2ncccc2F)c1` [RE-C], the values for the intrinsic metabolic clearance (microsomal CLint) at 1 µM in series [2], in series [3] and in series [4] were 107 µL/min/mg, 238 µL/min/mg and 582 µL/min/mg, respectively.
As to `O=S(=O)(Nc1cc(F)c(OC(F)F)cc1F)c1c[nH]c(-c2nccs2)c1` [RE-D], the intrinsic clearance (microsomal CLint) at 1 µM in series [2] is 10 µL/min/mg; in series [3], 35 µL/min/mg; in series [4] it was 207 µL/min/mg.
